In patent US20120094964A1, “SULFAMOYL BENZOIC ACID DERIVATIVES AS TRPM8 ANTAGONISTS” (priority 2009, published 2012):

Target: T1, human TRPM8 (Homo sapiens, UniProt Q7Z2W7)
T1 construct: expressed in transfected cells
Assay: In Vitro human TRPM8 Functional Assay (intracellular Ca2+, Fluo4, FDSS, menthol activation)
Assay type: cell-based
Settings: HEK293 cells stably expressing human TRPM8; activation with L-(-)-Menthol; 11-point dose-response
Procedure, shortened: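 Fluo4-loaded HEK293 cells stably expressing TRPM8 were preincubated with compound for 5 min at room temperature, then stimulated with L-menthol (20 μl of 90 μM stock) while fluorescence was read. IC50 values come from 11-point curves fitted to the mean of duplicate wells.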

T1 sequence (Q7Z2W7 whole entry): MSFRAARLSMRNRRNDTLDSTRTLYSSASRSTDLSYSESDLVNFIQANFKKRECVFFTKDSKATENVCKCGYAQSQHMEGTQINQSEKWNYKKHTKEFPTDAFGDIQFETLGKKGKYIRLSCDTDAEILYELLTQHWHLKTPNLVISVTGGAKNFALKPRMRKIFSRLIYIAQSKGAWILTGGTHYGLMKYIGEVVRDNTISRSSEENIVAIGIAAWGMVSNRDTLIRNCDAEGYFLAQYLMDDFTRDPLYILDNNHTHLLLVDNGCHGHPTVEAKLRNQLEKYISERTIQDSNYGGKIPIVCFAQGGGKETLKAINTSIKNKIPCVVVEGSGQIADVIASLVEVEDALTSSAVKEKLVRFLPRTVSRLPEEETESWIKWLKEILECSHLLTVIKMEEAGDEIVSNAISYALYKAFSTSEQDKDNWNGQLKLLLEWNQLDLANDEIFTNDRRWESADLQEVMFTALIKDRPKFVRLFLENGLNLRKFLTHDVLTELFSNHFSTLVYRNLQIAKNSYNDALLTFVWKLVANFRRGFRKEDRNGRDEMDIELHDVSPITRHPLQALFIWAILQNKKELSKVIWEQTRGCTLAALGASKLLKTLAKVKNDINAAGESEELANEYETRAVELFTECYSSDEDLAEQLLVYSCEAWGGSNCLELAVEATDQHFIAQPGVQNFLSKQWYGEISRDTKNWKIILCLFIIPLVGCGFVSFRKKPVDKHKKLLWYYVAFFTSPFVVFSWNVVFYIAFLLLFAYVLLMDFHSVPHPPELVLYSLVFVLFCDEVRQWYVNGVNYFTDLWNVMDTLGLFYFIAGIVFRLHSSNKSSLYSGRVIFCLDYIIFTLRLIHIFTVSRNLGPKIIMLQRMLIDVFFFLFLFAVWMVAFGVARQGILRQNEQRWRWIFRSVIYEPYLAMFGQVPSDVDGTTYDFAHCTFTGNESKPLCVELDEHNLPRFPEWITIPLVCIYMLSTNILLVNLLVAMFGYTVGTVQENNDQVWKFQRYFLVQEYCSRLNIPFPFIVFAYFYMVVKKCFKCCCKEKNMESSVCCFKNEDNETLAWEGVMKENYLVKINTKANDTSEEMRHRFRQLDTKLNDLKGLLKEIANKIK

Row | IC50 [nM] | Compound
1 | < 1000 | Cc1cc(C(F)(F)F)cnc1N(Cc1ccccc1)S(=O)(=O)c1ccc(C(=O)O)cc1 [Example 153, 4-(N-Benzyl-N-(3-methyl-5-(trifluoromethyl)pyridin-2-yl)sulfamoyl)benzoic acid]
2 | < 1000 | O=C(O)c1ccc(S(=O)(=O)N(Cc2ccc(-c3cccnc3)cc2)c2ncc(C(F)(F)F)cc2Cl)cc1 [Example 154, 4-(N-(3-Chloro-5-(trifluoromethyl)pyridin-2-yl)-N-(4-(pyridin-3-yl)benzyl)sulfamoyl)benzoic acid]
3 | < 1000 | O=C(O)c1ccc(S(=O)(=O)N(Cc2ccc(-c3cccs3)cc2)c2ncc(C(F)(F)F)cc2Cl)cc1 [Example 155, 4-(N-(3-Chloro-5-(trifluoromethyl)pyridin-2-yl)-N-(4-(thiophen-2-yl)benzyl)sulfamoyl)benzoic acid]
4 | < 1000 | O=C(O)c1ccc(S(=O)(=O)N(Cc2ccc(-c3ccncc3)cc2)c2ncc(C(F)(F)F)cc2Cl)cc1 [Example 156]
5 | < 1000 | O=C(O)c1ccc(S(=O)(=O)N(Cc2ccc(-c3cnco3)cc2)c2ncc(C(F)(F)F)cc2Cl)cc1 [Example 159, 4-(N-(3-Chloro-5-(trifluoromethyl)pyridin-2-yl)-N-(4-(oxazol-5-yl)benzyl)sulfamoyl)benzoic acid]
6 | < 1000 | O=C(O)c1ccc(S(=O)(=O)N(Cc2ccc(C(F)(F)F)nc2)c2ncc(C(F)(F)F)cc2Cl)cc1 [Example 160, 4-(N-(3-Chloro-5-(trifluoromethyl)pyridin-2-yl)-N-((6-(trifluoromethyl)pyridin-3-yl)methyl)sulfamoyl)benzoic acid]
7 | < 1000 | Cc1ccc(-c2ccc(CN(c3ncc(C(F)(F)F)cc3Cl)S(=O)(=O)c3ccc(C(=O)O)cc3)cc2)cn1 [Example 163, 4-(N-(3-chloro-5-(trifluoromethyl)pyridin-2-yl)-N-(4-(6-methylpyridin-3-yl)benzyl)sulfamoyl)benzoic acid]
8 | < 1000 | O=C(O)c1ccc(S(=O)(=O)N(Cc2cccc(-c3ccccc3)c2)c2ncc(C(F)(F)F)cc2Cl)cc1 [Example 164, 4-(N-[(1,1′-Biphenyl]-3-ylmethyl)-N-(3-chloro-5-(trifluoromethyl)pyridin-2-yl)sulfamoyl)benzoic acid]
9 | < 1000 | C[C@H](c1ccccc1)N(c1ncc(C(F)(F)F)cc1Cl)S(=O)(=O)c1ccc(C(=O)O)cc1 [Example 166, (R)-4-(N-(3-Chloro-5-(trifluoromethyl)pyridin-2-yl)-N-(1-phenylethyl)sulfamoyl)benzoic acid]
10 | < 1000 | O=C(O)c1ccc(S(=O)(=O)N(Cc2ccc(-n3cccn3)cc2)c2ncc(C(F)(F)F)cc2Cl)cc1 [Example 170, 4-(N-(4-(1H-Pyrazol-1-yl)benzyl)-N-(3-chloro-5-(trifluoromethyl)pyridin-2-yl)sulfamoyl)benzoic acid]
11 | < 1000 | O=C(O)c1ccc(S(=O)(=O)N(CC2CCC2)c2ncc(C(F)(F)F)cc2Cl)cc1 [Example 171, 4-(N-(3-Chloro-5-(trifluoromethyl)pyridin-2-yl)-N-(cyclobutylmethyl)sulfamoyl)benzoic acid]
12 | < 1000 | N#Cc1ccc(S(=O)(=O)N(Cc2ccccc2)c2ncc(C(F)(F)F)cc2Cl)cc1 [Example 173, N-Benzyl-N-(3-chloro-5-(trifluoromethyl)pyridin-2-yl)-4-cyanobenzenesulfonamide]
13 | < 1000 | CN(C)S(=O)(=O)NCc1ccc(S(=O)(=O)N(Cc2ccccc2)c2ncc(C(F)(F)F)cc2Cl)cc1 [Example 178, N-Benzyl-N-(3-chloro-5-(trifluoromethyl)pyridin-2-yl)-4-(((N,N-dimethylsulfamoyl)amino)methyl)benzenesulfonamide]
14 | < 1000 | COc1ccccc1-c1cnc(N(Cc2ccccc2)S(=O)(=O)c2ccc(C(=O)O)cc2)c(Cl)c1 [Example 185, 4-(N-Benzyl-N-(3-chloro-5-(2-methoxyphenyl)pyridin-2-yl)sulfamoyl)benzoic acid]
15 | < 1000 | COc1ccc(-c2cnc(N(Cc3ccccc3)S(=O)(=O)c3ccc(C(=O)O)cc3)c(Cl)c2)cc1 [Example 186, 4-(N-Benzyl-N-(3-chloro-5-(4-methoxyphenyl)pyridin-2-yl)sulfamoyl)benzoic acid]
16 | < 1000 | COc1cccc(-c2cnc(N(Cc3ccccc3)S(=O)(=O)c3ccc(C(=O)O)cc3)c(Cl)c2)c1 [Example 187, 4-(N-Benzyl-N-(3-chloro-5-(3-methoxyphenyl)pyridin-2-yl)sulfamoyl)benzoic acid]

Further lines, the compound ahead of its results:

Row | Compound | IC50 [nM]
17 | O=C(O)c1ccc(S(=O)(=O)N(Cc2ccc(-c3ccco3)cc2)c2ncc(C(F)(F)F)cc2Cl)cc1 [Example 157, 4-(N-(3-Chloro-5-(trifluoromethyl)pyridin-2-yl)-N-(4-(furan-2-yl)-benzyl)sulfamoyl)benzoic acid] | < 1000
18 | O=C(O)c1ccc(S(=O)(=O)N(Cc2ccc(-c3ccccc3)cc2)c2ncc(C(F)(F)F)cc2Cl)cc1 [Example 158, 4-(N-([1,1′-Biphenyl]-4-ylmethyl)-N-(3-chloro-5-(trifluoromethyl)pyridin-2-yl)sulfamoyl)benzoic acid] | < 1000
19 | O=C(O)c1ccc(S(=O)(=O)N(Cc2ccc(NC(=O)c3ccccn3)cc2)c2ncc(C(F)(F)F)cc2Cl)cc1 [Example 161, 4-(N-(3-Chloro-5-(trifluoromethyl)pyridin-2-yl)-N-(4-(picolinamido)benzyl)sulfamoyl)benzoic acid] | < 1000
20 | COc1ccc(-c2ccc(CN(c3ncc(C(F)(F)F)cc3Cl)S(=O)(=O)c3ccc(C(=O)O)cc3)cc2)cn1 [Example 162, 4-(N-(3-chloro-5-(trifluoromethyl)pyridin-2-yl)-N-(4-(6-methoxypyridin-3-yl)-benzyl)sulfamoyl)benzoic acid] | < 1000
21 | O=C(O)c1ccc(S(=O)(=O)N(Cc2ccccc2-c2ccccc2)c2ncc(C(F)(F)F)cc2Cl)cc1 [Example 165, 4-(N-([1,1′-Biphenyl]-2-ylmethyl)-N-(3-chloro-5-(trifluoromethyl)pyridin-2-yl)sulfamoyl)benzoic acid] | < 1000
22 | O=C(O)c1ccc(S(=O)(=O)N(Cc2cccs2)c2ncc(C(F)(F)F)cc2Cl)cc1 [Example 167, 4-(N-(3-Chloro-5-(trifluoromethyl)pyridin-2-yl)-N-(thiophen-2-ylmethyl)sulfamoyl)benzoic acid] | < 1000
23 | O=C(O)c1ccc(S(=O)(=O)N(Cc2ccc(Oc3ccccc3)cc2)c2ncc(C(F)(F)F)cc2Cl)cc1 [Example 169, 4-(N-(3-Chloro-5-(trifluoromethyl)pyridin-2-yl)-N-(4-phenoxybenzyl)sulfamoyl)benzoic acid] | < 1000
24 | O=C(O)c1ccc(S(=O)(=O)N(Cc2ccsc2)c2ncc(C(F)(F)F)cc2Cl)cc1 [Example 172, 4-(N-(3-Chloro-5-(trifluoromethyl)pyridin-2-yl)-N-(thiophen-3-ylmethyl)sulfamoyl)benzoic acid] | < 1000
25 | O=S(=O)(c1ccc(-c2nn[nH]n2)cc1)N(Cc1ccccc1)c1ncc(C(F)(F)F)cc1Cl [Example 174, N-Benzyl-N-(3-chloro-5-(trifluoromethyl)pyridin-2-yl)-4-(2H-tetrazol-5-yl)benzenesulfonamide] | < 1000
26 | COc1ccc(S(=O)(=O)N(Cc2ccccc2)c2ncc(C(F)(F)F)cc2Cl)cc1 [Example 175, N-Benzyl-N-(3-chloro-5-(trifluoromethyl)pyridin-2-yl)-4-methoxybenzenesulfonamide] | < 1000
27 | CS(=O)(=O)NCc1ccc(S(=O)(=O)N(Cc2ccccc2)c2ncc(C(F)(F)F)cc2Cl)cc1 [Example 176, N-Benzyl-N-(3-chloro-5-(trifluoromethyl)pyridin-2-yl)-4-(methylsulfonamidomethyl)benzenesulfonamide] | < 1000
28 | CC(=O)NCc1ccc(S(=O)(=O)N(Cc2ccccc2)c2ncc(C(F)(F)F)cc2Cl)cc1 [Example 177, N-(4-(N-Benzyl-N-(3-chloro-5-(trifluoromethyl)pyridin-2-yl)sulfamoyl)benzyl)acetamide] | < 1000
29 | CN(C)C(=O)NCc1ccc(S(=O)(=O)N(Cc2ccccc2)c2ncc(C(F)(F)F)cc2Cl)cc1 [Example 179, N-Benzyl-N-(3-chloro-5-(trifluoromethyl)pyridin-2-yl)-4-((3,3-dimethylureido)methyl)benzene sulfonamide] | < 1000
30 | O=C(O)c1ccc(S(=O)(=O)N(Cc2ccccc2)c2ncc(Br)cc2Cl)cc1 [Example 180, 4-(N-Benzyl-N-(5-bromo-3-chloropyridin-2-yl)sulfamoyl)benzoic acid] | < 1000
31 | O=C(O)c1ccc(S(=O)(=O)N(Cc2ccccc2)c2ncc(C(F)(F)F)cc2Cl)c(Cl)c1 [Example 181, 4-(N-Benzyl-N-(3-chloro-5-(trifluoromethyl)pyridin-2-yl)sulfamoyl)-3-chlorobenzoic acid] | < 1000
32 | O=C(O)c1ccc(S(=O)(=O)N(Cc2ccccc2)c2ncc(-c3ccco3)cc2Cl)cc1 [Example 183, 4-(N-Benzyl-N-(3-chloro-5-(furan-2-yl)pyridin-2-yl)sulfamoyl)benzoic acid] | < 1000
33 | O=C(O)c1ccc(S(=O)(=O)N(Cc2ccccc2)c2ncc(-c3ccsc3)cc2Cl)cc1 [Example 184, 4-(N-Benzyl-N-(3-chloro-5-(thiophen-3-yl)pyridin-2-yl)sulfamoyl)benzoic acid] | < 1000
34 | O=C(O)c1ccc(S(=O)(=O)N(Cc2ccccc2)c2ncc(C(F)(F)F)cc2Cl)cc1Cl [Example 188, 4-(N-Benzyl-N-(3-chloro-5-(trifluoromethyl)pyridin-2-yl)sulfamoyl)-2-chlorobenzoic acid] | < 1000
35 | COc1ccc(S(=O)(=O)N(Cc2ccccc2)c2ncc(C(F)(F)F)cc2Cl)cn1 [Example 189, N-Benzyl-N-(3-chloro-5-(trifluoromethyl)pyridin-2-yl)-6-methoxypyridine-3-sulfonamide] | < 1000
36 | O=C(O)c1ccc(S(=O)(=O)N(Cc2ccccc2)c2ncc(C(F)(F)F)cc2Cl)c(F)c1 [Example 190, 4-(N-Benzyl-N-(3-chloro-5-(trifluoromethyl)pyridin-2-yl)sulfamoyl)-3-fluorobenzoic acid] | < 1000
